Results: patent US9886545B2, “Interrogatory cell-based assays and uses thereof” (Berg LLC, priority 2011, dated 2018)

Tests used:
FASN = FASN (Mus musculus, UniProt P19096); conditions: Loftus et al 2000; cited from earlier work
[1] = test system: human mitochondrial energy metabolism genes; assay: Transcriptional profiling of diabetic cardiomyocytes; assay type: cell-based; conditions: diabetic cardiomyocytes treated with diabetic drug plus rescue molecule (T+R) vs untreated (UT)
Protocol: Human cardiomyocytes were subject to conditions simulating an diabetic environment experienced by the disease-relevant cells in vivo. Specifically, the cells were exposed to hyperglycemic conditions and hyperlipidemia conditions. The hyperglycemic condition was induced by culturing cells in media containing 22 mM glucose. The hyperlipidemia condition was induced by culturing the cells in media containing 1 mM L-carnitine, 0.7 mM Oleic acid and 0.7 mM Linoleic acid. […]
iProfiling of changes in total cellular protein expression by quantitative proteomics was performed for cell and media samples collected for each condition and with each “environmental perturbation”, i.e, diabetic drug treatment, Coenzyme Q10 treatment or both, using the techniques described above in the detailed description. […] Following data collection (Ct), the final fold change over control was determined using the δCt method as outlined in manufacturer's protocol. […] Functional assays such as Oxygen consumption rate OCR were measured by employing the Seahorse analyzer essentially as recommended by the manufacturer. OCR was recorded by the electrodes in a 7 μl chamber created with the cartridge pushing against the seahorse culture plate. […]

Bcl2 in melanoma cell = assay: Bcl2 level in melanoma cell in the presence of VEGF; assay type: cell-based
Text: (§1) The term “Multidimensional Intracellular Molecule (MIM)”, is an isolated version or synthetically produced version of an endogenous molecule that is naturally produced by the body and/or is present in at least one cell of a human. A MIM is capable of entering a cell and the entry into the cell includes complete or partial entry into the cell as long as the biologically active portion of the molecule wholly enters the cell. MIMs are capable of inducing a signal transduction and/or gene expression mechanism within a cell. MIMs are multidimensional because the molecules have both a therapeutic and a carrier, e.g., drug delivery, effect. MIMs also are multidimensional because the molecules act one way in a disease state and a different way in a normal state. For example, in the case of CoQ-10, administration of CoQ-10 to a melanoma cell in the presence of VEGF leads to a decreased level of Bcl2 which, in turn, leads to a decreased oncogenic potential for the melanoma cell. In contrast, in a normal fibroblast, co-administration of CoQ-10 and VEFG has no effect on the levels of Bcl2.

[2] = test system: Bcl2 in normal fibroblast; assay: Bcl2 level in normal fibroblast with VEGF co-administration; assay type: cell-based
Text: as §1

[3] = test system: LDHA expression in HepG2 cells; assay: Wet lab validation of LDHA expression in HepG2 cells; assay type: cell-based; conditions: 50 uM or 100 uM CoQ10 for 24 or 48 hours
Protocol: Protein accession number P00338 is LDHA. Wet lab validation of proteomics data were performed for LDHA expression in HepG2 cells (see FIG. 20).

FASN, sequence (P19096 whole entry): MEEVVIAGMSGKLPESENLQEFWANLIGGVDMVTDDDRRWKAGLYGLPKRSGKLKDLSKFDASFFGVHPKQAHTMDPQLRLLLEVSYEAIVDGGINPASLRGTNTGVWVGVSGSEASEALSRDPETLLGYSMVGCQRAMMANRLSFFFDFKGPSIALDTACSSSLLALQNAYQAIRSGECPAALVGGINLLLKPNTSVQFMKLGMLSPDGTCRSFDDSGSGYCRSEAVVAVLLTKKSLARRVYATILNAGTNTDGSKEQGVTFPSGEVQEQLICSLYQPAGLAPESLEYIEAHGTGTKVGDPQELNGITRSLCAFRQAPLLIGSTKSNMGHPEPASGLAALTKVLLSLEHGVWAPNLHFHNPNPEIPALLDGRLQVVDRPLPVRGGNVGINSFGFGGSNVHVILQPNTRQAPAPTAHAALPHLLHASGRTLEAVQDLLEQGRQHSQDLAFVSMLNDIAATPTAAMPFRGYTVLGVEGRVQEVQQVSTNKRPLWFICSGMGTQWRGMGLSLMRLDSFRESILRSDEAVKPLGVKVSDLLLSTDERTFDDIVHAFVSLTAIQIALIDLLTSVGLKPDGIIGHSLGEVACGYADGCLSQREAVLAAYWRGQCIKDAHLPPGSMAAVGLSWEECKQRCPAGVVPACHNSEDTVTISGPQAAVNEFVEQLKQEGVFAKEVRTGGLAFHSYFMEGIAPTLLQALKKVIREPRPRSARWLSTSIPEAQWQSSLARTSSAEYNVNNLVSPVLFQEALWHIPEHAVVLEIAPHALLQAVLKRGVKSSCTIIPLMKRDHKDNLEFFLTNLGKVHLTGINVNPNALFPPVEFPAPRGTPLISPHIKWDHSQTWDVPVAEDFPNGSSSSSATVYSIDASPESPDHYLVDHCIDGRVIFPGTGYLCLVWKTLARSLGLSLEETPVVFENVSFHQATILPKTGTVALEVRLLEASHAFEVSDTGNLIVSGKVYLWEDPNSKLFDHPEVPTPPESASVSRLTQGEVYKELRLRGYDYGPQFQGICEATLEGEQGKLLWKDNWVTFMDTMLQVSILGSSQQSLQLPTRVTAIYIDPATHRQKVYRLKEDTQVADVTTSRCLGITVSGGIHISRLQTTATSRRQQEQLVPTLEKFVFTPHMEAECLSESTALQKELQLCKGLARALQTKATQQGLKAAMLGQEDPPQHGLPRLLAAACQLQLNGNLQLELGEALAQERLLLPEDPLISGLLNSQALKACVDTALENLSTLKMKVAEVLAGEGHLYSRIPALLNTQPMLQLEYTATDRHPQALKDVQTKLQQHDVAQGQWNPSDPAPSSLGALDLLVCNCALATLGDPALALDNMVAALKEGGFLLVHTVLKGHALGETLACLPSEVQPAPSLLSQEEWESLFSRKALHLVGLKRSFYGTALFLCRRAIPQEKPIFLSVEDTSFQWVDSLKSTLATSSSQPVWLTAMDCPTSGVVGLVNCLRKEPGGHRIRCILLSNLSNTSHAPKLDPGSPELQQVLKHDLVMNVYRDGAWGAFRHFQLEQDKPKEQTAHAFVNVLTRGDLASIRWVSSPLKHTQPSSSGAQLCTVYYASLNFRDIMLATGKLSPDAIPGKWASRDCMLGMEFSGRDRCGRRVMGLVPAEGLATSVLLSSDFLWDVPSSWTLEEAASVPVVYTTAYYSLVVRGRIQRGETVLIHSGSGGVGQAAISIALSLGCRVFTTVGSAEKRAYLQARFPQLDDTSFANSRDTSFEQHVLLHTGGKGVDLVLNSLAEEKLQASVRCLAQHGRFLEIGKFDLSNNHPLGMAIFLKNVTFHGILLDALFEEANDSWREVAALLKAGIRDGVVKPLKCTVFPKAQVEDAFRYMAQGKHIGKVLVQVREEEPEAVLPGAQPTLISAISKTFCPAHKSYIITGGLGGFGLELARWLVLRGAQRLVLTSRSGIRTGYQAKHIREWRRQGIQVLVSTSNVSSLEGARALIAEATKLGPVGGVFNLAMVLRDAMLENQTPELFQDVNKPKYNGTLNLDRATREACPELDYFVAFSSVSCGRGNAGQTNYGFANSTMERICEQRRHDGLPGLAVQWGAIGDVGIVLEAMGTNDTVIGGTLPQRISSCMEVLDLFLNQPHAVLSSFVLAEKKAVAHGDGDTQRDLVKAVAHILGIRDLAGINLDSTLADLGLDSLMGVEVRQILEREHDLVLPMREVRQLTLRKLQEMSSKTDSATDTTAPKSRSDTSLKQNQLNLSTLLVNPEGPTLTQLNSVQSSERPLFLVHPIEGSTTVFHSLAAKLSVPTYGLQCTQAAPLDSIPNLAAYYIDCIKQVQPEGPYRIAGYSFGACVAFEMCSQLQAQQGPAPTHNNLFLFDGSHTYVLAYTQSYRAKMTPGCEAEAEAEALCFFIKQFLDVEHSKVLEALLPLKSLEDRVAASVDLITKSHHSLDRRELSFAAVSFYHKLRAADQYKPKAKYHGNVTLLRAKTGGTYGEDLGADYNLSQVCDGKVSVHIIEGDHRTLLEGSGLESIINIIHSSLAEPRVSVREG

| gene expression and transcription of mitochondrial energy metabolism genes, rescue [1] | gene expression and transcription of mitochondrial energy metabolism genes, rescue ([1]; listed as R) | SMILES | food intake (FASN) | weight loss (FASN) | level of Bcl2 (Bcl2 in melanoma cell) | levels of Bcl2 [2] | LDHA expression levels [3] |
| --- | --- | --- | --- | --- | --- | --- | --- |
| – | – | C=C1C(=O)OC(CCCCCCCC)C1C(=O)O (stereo not drawn) [C75] | reducing | effectuate weight loss | – | – | – |
| normalize | normalizes | COC1=C(OC)C(=O)C(C/C=C(\C)CC/C=C(\C)CC/C=C(\C)CC/C=C(\C)CC/C=C(\C)CC/C=C(\C)CC/C=C(\C)CC/C=C(\C)CC/C=C(\C)CCC=C(C)C)=C(C)C1=O [Coenzyme Q10] | – | – | decreased | no effect | decreased |
| – | – | C/C=C/C/C=C/CCC(=O)[C@H]1O[C@H]1C(N)=O [Cerulenin] | reducing | effectuate weight loss | – | – | – |
